Experimental data as given in patent publication US8865623B2, “Herbicidally active cyclic diones and derivatives thereof, processes for their preparation, compositions, and method of controlling weeds” (Syngenta Limited, priority 2009, dated 2014).

Legend:
Type in all cases: in vivo
[1] = tested on: Avena fatua (AVEFA); assay: Post-emergence herbicidal activity, glasshouse pot test; details: rate 250 g/ha, evaluated after 13 days
Summary of the method: (§1)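 Rating: 0 (no damage) to 100 (total damage), 13 days after application. Application: aqueous spray from a.i. in acetone/water (50:50) + 0.5% Tween 20, one day (pre) or 8 days (post) after sowing. Glasshouse: 24/16° C, 14 h light, 65% humidity.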

[2] = tested on: Alopecurus myosuroides (ALOMY); assay: as above; details: rate 250 g/ha, evaluated after 13 days
Summary of the method: as §1

[3] = tested on: Lolium perenne (LOLPE); assay: as above; details: rate 250 g/ha, evaluated after 13 days
Summary of the method: as §1

[4] = tested on: Echinochloa crus-galli (ECHCG); assay: as above; details: rate 250 g/ha, evaluated after 13 days
Summary of the method: as §1

[5] = tested on: Avena fatua (AVEFA); assay: Pre-emergence herbicidal activity, glasshouse pot test; details: pre-emergence, rate 250 g/ha, evaluated after 13 days
Summary of the method: as §1

[6] = tested on: Alopecurus myosuroides (ALOMY); assay: as above; details: pre-emergence, rate 250 g/ha, evaluated after 13 days
Summary of the method: as §1

[7] = tested on: Lolium perenne (LOLPE); assay: as above; details: pre-emergence, rate 250 g/ha, evaluated after 13 days
Summary of the method: as §1

[8] = tested on: Echinochloa crus-galli (ECHCG); assay: as above; details: pre-emergence, rate 250 g/ha, evaluated after 13 days
Summary of the method: as §1

Compound	AVEFA damage to plant (100=total damage to plant; 0=no damage to plant) [1]	ALOMY damage to plant (100=total damage to plant; 0=no damage to plant) [2]	LOLPE damage to plant (100=total damage to plant; 0=no damage to plant) [3]	ECHCG damage to plant (100=total damage to plant; 0=no damage to plant) [4]	AVEFA damage to plant (100=total damage to plant; 0=no damage to plant) [5]	ALOMY damage to plant (100=total damage to plant; 0=no damage to plant) [6]	LOLPE damage to plant (100=total damage to plant; 0=no damage to plant) [7]	ECHCG damage to plant (100=total damage to plant; 0=no damage to plant) [8]
CCCC(=O)OC1=C(c2cc(Oc3ccc(C#N)cc3F)ccc2CC)C(=O)C(C)(C)OC1(C)C [Example P-3]	60	90	90	100	70	70	100	100
CCc1ccc(Oc2ccc(C#N)cc2F)cc1C1=C(OC(=O)OC)C(C)(C)OC(C)(C)C1=O [Example P-4]	60	90	90	100	60	80	100	100
CCOC(=O)OC1=C(c2cc(Oc3ccc(C#N)cc3F)ccc2CC)C(=O)C(C)(C)OC1(C)C [Example P-5]	70	80	80	100	70	100	100	100
CCCOC(=O)OC1=C(c2cc(Oc3ccc(C#N)cc3F)ccc2CC)C(=O)C(C)(C)OC1(C)C [Example P-6]	50	90	70	90	20	80	90	100
